We go through 26 compounds from US7148376B2, “Polymorphic forms of nateglinide” (Teva Pharmaceutical Industries Ltd., priority 2002, dated 2006).

Entries after “also recorded” stand apart in the source; their conditions may differ.

Data set [1] in a line: Thermal stability: polymorphic form after drying or heating (XRPD). Format: physicochemical. As to conditions: for crystal form obtained upon drying: drying by heating under ambient or reduced pressure, generally about 40° C. to about 80° C. As to the method:
The various crystalline forms are related to each other in that drying of one form may result in a transformation to another form, namely nateglinide Forms A, B, D, E, F, G, H, I, J, K, L, M, N, Q, S, T, V, Z, α, β, δ, γ, ε, θ and Ω. The drying is carried out by heating a sample under ambient or reduced pressure. Generally, a preferred temperature is from about 40° C. to about 80° C., more preferably under reduced pressure. […] The term “stable” as used herein refers to a polymorphic change of less than about 5% by weight, more preferably less than about 2%, particularly for Form δ.
(§1) • X-Ray diffraction was performed on X-Ray powder diffractometer, Scintag®, variable goniometer, Cu-tube, solid state detector. Sample holder: A round standard aluminum sample holder with round zero background quartz plate. • The sample was put on the sample holder and immediately analyzed as is. • Scanning parameters: Range: 2–40 deg 2θ, Continuos Scan, Rate: 3 deg./min. DSC: • DSC821^e Mettler Toledo®, Sample weight: 3–5 mg, Heating rate: 10° C./min, Number of holes in the crucible: 3 TGA: • Mettler TG50®, Sample weight: 7–15 mg, Heating rate: 10° C./min FTIR: • Perkin-Elmer®, Spectrum One FTIR spectrometer, Range: 4000–400 cm−1, no. of scans: 16, resolution: 4.0 cm−1, DRIFT technique.
Sample of nateglinide form U (˜1 g) was introduced into a 6-gram vial and heated over 8.5 h in a 100° C. oil bath. The vial were extracted from the bath.
Sample of nateglinide form U (˜0.5 g) was heated to 120° C. for 1 h in an atmospheric pressure.
Sample of nateglinide form δ (˜0.5 g) was heated to 120° C. for 1 h in an atmospheric pressure.

Data set [2] in a line: Exposure of nateglinide Form H to solvent vapors. Format: physicochemical. As to conditions: vapors of water and acetone, room temperature. The method, then: Some of the crystalline forms are obtained by absorption of solvent vapors. Nateglinide is contacted with vapors of a particular solvent, resulting in absorption of the solvent. Absorption of ethanol results in Form D, methanol in Form O, and DCM in Form Y. Form H was stable in the presence of vapors of water and acetone.
Nateglinide (3.50 g) was added to a polypropylene can and weighed. The can was introduced into a bigger polypropylene container containing a solvent, and stored at room temperature. The can was removed from the container and weighed (Wfinal). The can content was divided into 2 portions. One portion was dried at a temperature of 55° C. and a pressure of 20–30 mmHg to constant weight (±0.01 g).

Data set [3] in a line: Polymorphic stability on storage at room temperature (XRPD). In kind it is physicochemical. As to conditions: storage at room temperature and pressure for about a day. The method, then: The various crystalline forms are also analyzed by Thermal Gravimetric Analysis (TGA). […] In contrast to the above listed forms, TGA profiles of forms L, P, U, α, δ and σ show no significant weight loss. These polymorphic forms of nateglinide are free of bound solvents, i.e., less than about 2% LOD. Table III lists the solvents used for the preparation for nateglinide solvated forms, as well as LOD values based on TGA analysis.
Storage at room temperature and pressure may also cause a transition of one form to another.
as §1

For data set [4] the following is noted: cited from earlier work.

For the compound `CC(C)[C@H]1CC[C@H](C(=O)N[C@H](Cc2ccccc2)C(=O)O)CC1` [Form θ, nateglinide], in data set [1] (listed as θ), the “crystal form obtained upon drying” value is “convert to Form B”.

Regarding `CC(C)[C@H]1CC[C@H](C(=O)N[C@H](Cc2ccccc2)C(=O)O)CC1` [Form Ω, nateglinide], in data set [1] (50° C., vacuum oven, overnight, XRD), the “crystal form after drying at 50° C. in a vacuum oven overnight” value is “mixture of Form omega and Form Z”. Besides, in data set [1] (listed as Ω), the “crystal form obtained upon drying” value was “convert to Form B”.

Take `CC(C)[C@H]1CC[C@H](C(=O)N[C@H](Cc2ccccc2)C(=O)O)CC1` [Form H, nateglinide]: the “thermal stability (conversion to another form upon heating)” value (“thermal stability” for short) in data set [1] is “thermally stable”. For the same compound, the “stability in the presence of solvent vapors” value in data set [2] is given as “stable”.

With `CC(C)[C@H]1CC[C@H](C(=O)N[C@H](Cc2ccccc2)C(=O)O)CC1` [Form O, nateglinide], in data set [1], the “thermal stability” value was “somewhat stable”.

For the compound `CC(C)[C@H]1CC[C@H](C(=O)N[C@H](Cc2ccccc2)C(=O)O)CC1` [Form J, nateglinide], the “crystal form obtained upon drying” value in data set [1] (listed as J) was “convert to Form B”.

In the case of `CC(C)[C@H]1CC[C@H](C(=O)N[C@H](Cc2ccccc2)C(=O)O)CC1` [Form G, nateglinide], the “crystal form obtained upon drying” value in data set [1] (listed as G) was “convert to Form B”.

As for `CC(C)[C@H]1CC[C@H](C(=O)N[C@H](Cc2ccccc2)C(=O)O)CC1` [Form α, nateglinide], the “thermal stability” value in data set [1] is given as “somewhat stable”. In addition, the “crystal form obtained upon drying” value in data set [1] (listed as α) was “convert to Form B”.

Regarding `CC(C)[C@H]1CC[C@H](C(=O)N[C@H](Cc2ccccc2)C(=O)O)CC1` [Form K, nateglinide], the “crystal form obtained upon drying” value in data set [1] (listed as K) is reported as “convert to Form B”.

Take `CC(C)[C@H]1CC[C@H](C(=O)N[C@H](Cc2ccccc2)C(=O)O)CC1` [Form B, nateglinide]: in data set [1], the “thermal stability” value is “thermally stable”.

For `CC(C)[C@H]1CC[C@H](C(=O)N[C@H](Cc2ccccc2)C(=O)O)CC1` [Form σ, nateglinide], the “thermal stability” value in data set [1] is listed as “thermally stable”.

Turning to `CC(C)[C@H]1CC[C@H](C(=O)N[C@H](Cc2ccccc2)C(=O)O)CC1` [Form U, nateglinide], the “thermal stability” value in data set [1] is listed as “thermally stable”. In addition, in data set [1] (100° C. oil bath, 8.5 h, XRPD), the “crystal form after heating at about 100° C.” value is recorded as “does not undergo a transition; also recorded: Form U”. Also, the “crystal form after heating to 120° C. for 1 h” value in data set [1] (120° C., 1 h, atmospheric pressure, XRPD) is recorded as “Form U”.

For `CC(C)[C@H]1CC[C@H](C(=O)N[C@H](Cc2ccccc2)C(=O)O)CC1` [Form L, nateglinide], the “thermal stability” value in data set [1] is listed as “thermally stable”.

With `CC(C)[C@H]1CC[C@H](C(=O)N[C@H](Cc2ccccc2)C(=O)O)CC1` [Form Q, nateglinide], the “crystal form obtained upon drying” value in data set [1] (listed as Q) is “convert to Form B”. The “transition of one form to another on storage” value (“transition of one form” below) in data set [3] (listed as Q) is recorded as “converts to Form Y (containing chloroform)”.

For the compound `CC(C)[C@H]1CC[C@H](C(=O)N[C@H](Cc2ccccc2)C(=O)O)CC1` [Form Z, nateglinide], the “crystal form obtained upon drying” value in data set [1] (listed as Z) is given as “convert to Form B”.

For the compound `CC(C)[C@H]1CC[C@H](C(=O)N[C@H](Cc2ccccc2)C(=O)O)CC1` [Form T, nateglinide], in data set [1] (listed as T), the “crystal form obtained upon drying” value was “convert to Form B; also recorded: mixture of Form B and G”. The “transition of one form” value in data set [3] (listed as T) is given as “converts to Form E”.

As to `CC(C)[C@H]1CC[C@H](C(=O)N[C@H](Cc2ccccc2)C(=O)O)CC1` [Form C, nateglinide], in data set [1] (listed as C), the “crystal form obtained upon drying” value is reported as “convert to Form B”.

Take `CC(C)[C@H]1CC[C@H](C(=O)N[C@H](Cc2ccccc2)C(=O)O)CC1` [Form D, nateglinide]: the “crystal form obtained upon drying” value in data set [1] (listed as D) is “convert to Form B”.

On to `CC(C)[C@H]1CC[C@H](C(=O)N[C@H](Cc2ccccc2)C(=O)O)CC1` [Form E, nateglinide], for which the “crystal form obtained upon drying” value in data set [1] (listed as E) is recorded as “convert to Form B”.

For `CC(C)[C@H]1CC[C@H](C(=O)N[C@H](Cc2ccccc2)C(=O)O)CC1` [nitromethane solvates of Form Epsilon, nateglinide], in data set [1], the “crystal form obtained upon drying” value is “Forms H or P”.

Take `CC(C)[C@H]1CC[C@H](C(=O)N[C@H](Cc2ccccc2)C(=O)O)CC1` [Form Y, nateglinide]: the “thermal stability” value in data set [1] is “somewhat stable”.

With `CC(C)[C@H]1CC[C@H](C(=O)N[C@H](Cc2ccccc2)C(=O)O)CC1` [acetonitrile solvate of Form Epsilon, nateglinide], the “crystal form obtained upon drying” value in data set [1] is “Form B”.

Consider `CC(C)[C@H]1CC[C@H](C(=O)N[C@H](Cc2ccccc2)C(=O)O)CC1` [Form A, nateglinide], for which the “crystal form obtained upon drying” value in data set [1] (listed as A) was “convert to Form B”. In data set [3] (listed as A), the “transition of one form” value is given as “partially converts to Form B”.

As for `CC(C)[C@H]1CC[C@H](C(=O)N[C@H](Cc2ccccc2)C(=O)O)CC1` [Form δ, nateglinide], the “thermal stability” value in data set [1] is “somewhat stable”. In data set [1] (120° C., 1 atmosphere, 1 h, XRPD), the “crystal form after heating at 120° C.” value is on record as “Form B”. In addition, the “crystal form obtained upon drying” value in data set [1] (listed as δ) is given as “convert to Form B”. Also, in data set [1] (fluidized bed drier, 4 hours at 60° C.), the “polymorphic form after drying in a fluidized bed drier” value was “delta”. The “polymorph after drying in a stirred reactor” value in data set [1] (stirred reactor 7–10 rpm, 60 mmHg vacuum, 60° C., 6 hours) is “remained delta form”.

With `CC(C)[C@H]1CC[C@H](C(=O)N[C@H](Cc2ccccc2)C(=O)O)CC1` [Form β, nateglinide], the “crystal form obtained upon drying” value in data set [1] (listed as β) is reported as “convert to Form B”.

On to `CC(C)[C@H]1CC[C@H](C(=O)N[C@H](Cc2ccccc2)C(=O)O)CC1` [Form I, nateglinide], for which the “transition of one form” value in data set [3] (listed as I) is given as “converts to Form L”.

Take `CC(C)[C@H]1CC[C@H](C(=O)N[C@H](Cc2ccccc2)C(=O)O)CC1` [nateglinide, (−)-N-(trans-4-isopropylcyclohexanecarbonyl)-D-Phenylalanine]: in data set [4] (acetonitrile), the solubility in acetonitrile entry is “sparingly soluble”. For the same compound, the solubility in chloroform entry in data set [4] (chloroform) was “freely soluble”. Moreover, the solubility in ethanol entry in data set [4] (ethanol) is “freely soluble”. For the same compound, the solubility in ether result in data set [4] (ether) is on record as “soluble”. Further, the solubility in methanol entry in data set [4] (methanol) is on record as “freely soluble”. The solubility in octanol entry in data set [4] (octanol) is on record as “sparingly soluble”. Besides, the solubility in water entry in data set [4] (water) is listed as “practically insoluble”.
